Laboratory results: patent publication US20190077795A1, “ARGININE […] INHIBITORS AND USES THEREOF” (Epizyme, Inc., priority 2014, published 2019)
Read-outs that look alike come from different tables or passages of the source.

Key:
human PRMT1 = target: T1, human PRMT1 (Homo sapiens, UniProt Q99873); experiment: PRMT1 Biochemical Assay; conditions: peptide substrate, 3H-SAM Flashplate assay; read-out: PRMT1 IC50
T1 construct: GST-tagged PRMT1; made in house; host or cells: High Five insect cells (baculovirus, pFastBac1)
How it was run: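 GST-tagged PRMT1 from baculovirus-infected cells, preincubated with compounds 30 min at room temperature in 20 mM Bicine pH 7.6, 1 mM TCEP, 0.005% BSG, 0.002% Tween 20. Reaction started with ³H-SAM plus biotinylated peptide, stopped with 300 µM cold SAM.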

human PRMT6 = target: T2, human PRMT6 (Homo sapiens, UniProt Q96LA8); experiment: PRMT6 Biochemical Assay
T2 construct: Flag-PRMT6-His; made in house; host or cells: HEK 293F cells (BacMam baculovirus, pFastBacMam)

[1] = system: mono-methyl arginine in RKO cells; experiment: RKO Methylation Assay, In Cell Western (ICW); format: cell-based; conditions: 72 hours
human PRMT8 = human PRMT8 (Homo sapiens, UniProt Q9NR22); experiment: PRMT8 Biochemical Assay; conditions: PRMT8 IC50 (uM), peptide substrate, 3H-SAM Flashplate assay
Description: S-adenosylmethionine (SAM), S-adenosylhomocysteine (SAH), bicine, Tween20, dimethylsulfoxide (DMSO), bovine skin gelatin (BSG), isopropyl-3-D-thiogalactopyranoside (IPTG), and Tris(2-carboxyethyl)phosphine hydrochloride solution (TCEP) were purchased from Sigma-Aldrich at the highest level of purity possible. ^3H-SAM was purchase from American Radiolabeled Chemicals with a specific activity of 80 Ci/mmol. 384-well streptavidin Flashplates were purchased from PerkinElmer.
E. coli (BL21(DE3) Gold, Stratagene) made competent by the CaCl2 method were transformed with the PRMT8 construct and ampicillin selection. Protein over-expression was accomplished by growing the PRMT8 expressing E. coli clone and inducing expression with 0.3 mM IPTG at 16° C. The culture was grown for 12 hours, harvested by centrifugation, and stored at −80° C. for purification.
GST-tagged PRMT8 was eluted with 50 mM Tris, 2 mM glutathione, pH 7.8. Pooled fractions were cleaved by thrombin (10U) and dialysed in buffer A. GST was removed by reloading the cleaved protein sample onto glutathione sepharose column and PRMT8 was collected in the flow-through fractions. PRMT8 was purified further by ceramic hydroxyapatite chromatography. The column was washed with 50 mM phosphate buffer, 100 mM NaCl, 5% glycerol, 5 mM β-mercaptoethanol, pH 7.8 and PRMT8 was eluted by 100 mM phosphate in the same buffer. Protein was concentrated and buffer was exchanged to 50 mM Tris, 300 mM NaCl, 10% glycerol, 5 mM β-mercaptoethanol, pH 7.8 by ultrafiltration.
General Procedure for PRMT8 Enzyme Assays on Peptide Substrates.
The assays were all performed in a buffer consisting of 20 mM Bicine (pH=7.6), 1 mM TCEP, 0.005% BSG, and 0.002% Tween 20, prepared on the day of use. […] DMSO (1 ul) was added to Columns 11, 12, 23, 24, rows A-H for the maximum signal control and 1 ul of SAH, a known product and inhibitor of PRMT8, was added to columns 11, 12, 23, 24, rows I-P for the minimum signal control. A cocktail (40 ul) containing the PRMT8 enzyme was added by Multidrop Combi (Thermo-Fisher). The compounds were allowed to incubate with PRMT8 for 30 min at room temperature, then a cocktail (10 ul) containing ^3H-SAM and peptide was added to initiate the reaction (final volume=51 ul). […] The assays were stopped by the addition of non-radiolabeled SAM (10 ul) to a final concentration of 400 uM, which dilutes the ^3H-SAM to a level where its incorporation into the peptide substrate is no longer detectable. 50 ul of the reaction in the 384-well polypropylene plate was then transferred to a 384-well Flashplate and the biotinylated peptides were allowed to bind to the streptavidin surface for at least 1 hour before being washed once with 0.1% Tween20 in a Biotek ELx405 plate washer. The plates were then read in a PerkinElmer TopCount plate reader to measure the quantity of ^3H-labeled peptide bound to the Flashplate surface, measured as disintegrations per minute (dpm) or alternatively, referred to as counts per minute (cpm).
Where dpm=disintegrations per minute, cmpd=signal in assay well, and min and max are the respective minimum and maximum signal controls.
Where top and bottom are the normally allowed to float, but may be fixed at 100 or 0 respectively in a 3-parameter fit. The Hill Coefficient normally allowed to float but may also be fixed at 1 in a 3-parameter fit. Y is the % inhibition and X is the compound concentration.

[2] = peptide substrate, 3H-SAM Flashplate assay, read-out: PRMT6 IC50

T2 sequence (Q96LA8 with tags, fused parts or gaps): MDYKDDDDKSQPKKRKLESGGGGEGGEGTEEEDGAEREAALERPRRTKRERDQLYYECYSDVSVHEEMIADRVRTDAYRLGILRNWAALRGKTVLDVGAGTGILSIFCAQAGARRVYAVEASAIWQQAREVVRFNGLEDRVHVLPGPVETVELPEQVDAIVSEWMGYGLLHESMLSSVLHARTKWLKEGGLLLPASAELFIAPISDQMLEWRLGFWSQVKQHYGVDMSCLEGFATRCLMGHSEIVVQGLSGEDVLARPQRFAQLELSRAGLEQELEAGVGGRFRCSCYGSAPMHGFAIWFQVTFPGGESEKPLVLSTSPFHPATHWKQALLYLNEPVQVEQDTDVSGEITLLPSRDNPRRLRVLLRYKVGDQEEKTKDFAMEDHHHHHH
Sequence of human PRMT8 (Q9NR22 whole entry): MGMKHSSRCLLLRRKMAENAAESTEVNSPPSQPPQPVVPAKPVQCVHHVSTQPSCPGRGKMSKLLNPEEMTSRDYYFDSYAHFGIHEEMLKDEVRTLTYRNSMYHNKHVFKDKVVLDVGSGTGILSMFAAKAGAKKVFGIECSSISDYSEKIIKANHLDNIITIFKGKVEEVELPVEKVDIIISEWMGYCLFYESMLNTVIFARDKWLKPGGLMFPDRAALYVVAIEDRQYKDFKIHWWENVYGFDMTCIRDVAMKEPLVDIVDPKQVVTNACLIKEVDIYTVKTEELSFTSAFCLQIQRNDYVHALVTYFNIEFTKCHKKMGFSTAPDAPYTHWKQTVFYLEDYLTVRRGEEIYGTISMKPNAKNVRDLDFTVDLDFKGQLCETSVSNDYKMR
T1 sequence (Q99873 with tags, fused parts or gaps): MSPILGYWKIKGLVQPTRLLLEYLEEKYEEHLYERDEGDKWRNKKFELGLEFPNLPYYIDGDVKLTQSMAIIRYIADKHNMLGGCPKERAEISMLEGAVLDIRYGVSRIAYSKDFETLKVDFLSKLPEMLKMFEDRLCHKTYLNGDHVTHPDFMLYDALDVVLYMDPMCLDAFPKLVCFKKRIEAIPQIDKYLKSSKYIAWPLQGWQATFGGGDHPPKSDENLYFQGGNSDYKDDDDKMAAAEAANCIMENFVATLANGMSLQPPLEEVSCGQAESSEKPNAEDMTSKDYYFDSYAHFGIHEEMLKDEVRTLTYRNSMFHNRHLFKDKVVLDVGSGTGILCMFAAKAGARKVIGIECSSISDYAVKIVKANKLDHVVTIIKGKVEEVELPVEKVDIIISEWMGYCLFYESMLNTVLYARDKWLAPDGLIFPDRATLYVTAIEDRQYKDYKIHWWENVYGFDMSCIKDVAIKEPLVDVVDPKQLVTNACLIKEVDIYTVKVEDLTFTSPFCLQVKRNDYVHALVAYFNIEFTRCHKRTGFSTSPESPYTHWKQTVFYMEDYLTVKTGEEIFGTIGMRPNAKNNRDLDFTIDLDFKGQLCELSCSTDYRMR

| SMILES | IC50 (human PRMT1) | IC50 (human PRMT6; [2]) | ICW EC30 [1] | IC50 (human PRMT8) | IC50 (human PRMT6; PRMT6 IC50 (uM)) |
| --- | --- | --- | --- | --- | --- |
| CNCCN(C)Cc1c[nH]nc1-c1ccc(OCCOc2cccc(C)c2)cc1 [Compound 153] | 4.3 nM | 0.00315 µM | 177.6 nM | 0.0133 µM | – |
| C=C(C)COc1c(Cl)cc(-c2n[nH]cc2CN(C)CCNC)cc1Cl [Compound 7] | 4.86 nM | 0.0131 µM | 91.54 nM | 0.0124 µM | – |
| CNCCN(C)Cc1c[nH]nc1-c1ccc(OCCOc2ccc(OCCN3CCOCC3)cc2)cc1 [Compound 46] | 9.49 nM | 0.00456 µM | 251.6 nM | 0.026 µM | – |
| CCN(CCOc1cccc(OC)c1)c1ccc(-c2n[nH]cc2CN(C)CCNC)cc1 [Compound 45] | 9.26 nM | 0.0331 µM | 1140 nM | 0.0367 µM | – |
| CNCCN(C)Cc1c[nH]nc1-c1ccc(N(CCCN2CCOCC2)CC(C)C)nc1 [Compound 69] | 14.9 nM | 2.54 µM | 1337 nM | 0.0312 µM | – |
| CNCCN(C)Cc1c[nH]nc1-c1ccc(OCCOC)nc1 [Compound 121] | 42.3 nM | – | 1472 nM | 0.163 µM | 0.0886 µM |
| CN(CCN)Cc1c[nH]nc1-c1cc(F)c(Cl)c(C(F)(F)F)c1 [Compound 30] | 7.05 nM | 0.0135 µM | 648 nM | 0.0608 µM | – |
| CNCCN(C)Cc1c[nH]nc1-c1cc(F)c(OC2CCOCC2)c(C(F)(F)F)c1 [Compound 53] | 11 nM | 0.0189 µM | 479 nM | 0.0328 µM | – |
| CNCCN(C)Cc1c[nH]nc1-c1cc(C)c(OCC2CC2)c(C(F)(F)F)c1 [Compound 43] | 8.97 nM | – | 475 nM | 0.015 µM | 0.0326 µM |
| CNCCN(C)Cc1c[nH]nc1-c1ccc(OCCOc2cccc(CO)c2)cc1 [Compound 143] | 6.69 nM | 0.00448 µM | 544.3 nM | 0.0258 µM | – |
| CNCCN(C)Cc1c[nH]nc1-c1ccc(OCCOc2ccc(OCCOC)cc2)cc1 [Compound 72] | 15.3 nM | 0.0101 µM | 163 nM | 0.035 µM | – |
| CNCCN(C)Cc1c[nH]nc1-c1ccc(OC(CO)CC(C)C)cc1 (centres unmarked) [Compound 118] | 41.2 nM | 0.0342 µM | 1175 nM | 0.0955 µM | – |
| COCCOc1cc(-c2n[nH]cc2CN(C)CCN)cc(C(F)(F)F)c1 [Compound 94] | 25.5 nM | 0.823 µM | 6823 nM | 0.158 µM | – |
| CNCCN(C)Cc1c[nH]nc1-c1ccc(OCCOc2ccc(CO)cc2)cc1 [Compound 16] | 5.8 nM | 0.0037 µM | 276.3 nM | 0.0206 µM | – |
| CCC(CC)Oc1ccc(-n2nc(C)cc2CN(C)CCNC)cc1 [Compound 65] | 14.1 nM | – | 215.6 nM | 0.0299 µM | 0.136 µM |
| CNCCN(C)Cc1cnn(CCOC)c1-c1ccc(OC(C)C)cc1 [Compound 97] | 28.2 nM | – | 1994 nM | 0.0601 µM | 0.106 µM |
| CNCCN(C)Cc1ccnn1C1CCC2(CCOC2)CC1 (centres unmarked) [Compound 54] | 11.2 nM | 0.0329 µM | 680 nM | 0.0535 µM | – |
| CNCCN(C)Cc1c[nH]nc1-c1cc(F)c(OCCOC)c(C(F)(F)F)c1 [Compound 103] | 33.3 nM | 0.0274 µM | 850 nM | 0.0421 µM | – |
| CNCCN(C)Cc1c[nH]nc1-c1ccc(OCCOc2cccc(N3CCOCC3)c2)cc1 [Compound 49] | 10.5 nM | 0.00705 µM | 746.8 nM | 0.0337 µM | – |
| CNCCN(C)Cc1cnn(C2CCC2)c1-c1ccc(OC(C)C)cc1 [Compound 141] | 65.8 nM | 0.0869 µM | 496 nM | 0.056 µM | – |
